The text below walks through data of PubChem BioAssay (NCI).

Structures are written as SMILES.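 Interpolation was linear, between the two tested concentrations surrounding the appropriate level; five concentrations were tested over 48 hours in 96-well plates. Definition used: TGI = concentration required for complete inhibition of growth.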

Among the test systems are HT29 colon; M14 melanoma; SK-MEL-2 melanoma; COLO 205 colon; LOX IMVI melanoma; CCRF-CEM leukemia; SNB-75 CNS; HCT-15 colon; MCF7 breast; SK-MEL-5 melanoma; HCC-2998 colon.
Holding throughout (test): NCI-60 cell line screen, 48 h

Regarding `COc1cc(NC(C)=O)ccc1C(=O)NN1C(=O)C(Cl)C1c1ccco1` (centres undefined), the TGI in the experiment on HT29 colon, in the experiment on M14 melanoma, in the experiment on SK-MEL-2 melanoma, in the experiment with COLO 205 colon, in the experiment on LOX IMVI melanoma and with CCRF-CEM leukemia was greater than 100 µM each time. The TGI in the experiment on SNB-75 CNS, in the experiment with HCT-15 colon, in the experiment with MCF7 breast and in the experiment with SK-MEL-5 melanoma was greater than 100 µM in each case.
`O=C(Cc1csc(N=Nc2c(O)[nH]c3ccccc23)n1)Nc1ccccc1`: the TGI in the experiment with HT29 colon is 59 µM; with M14 melanoma, greater than 100 µM; with SK-MEL-2 melanoma, greater than 100 µM; in the experiment with COLO 205 colon, greater than 100 µM; with LOX IMVI melanoma, greater than 100 µM; in the experiment with SNB-75 CNS it was 86.9 µM. Further, the TGI with HCT-15 colon was greater than 100 µM; with HCC-2998 colon, 94.3 µM; in the experiment with MCF7 breast, greater than 100 µM; with SK-MEL-5 melanoma, greater than 100 µM.
For `Cc1ccc(S(=O)(=O)N2C[C@](O)(c3ccccc3)[C@H]2C)cc1`, the TGI with HT29 colon, in the experiment on M14 melanoma, with SK-MEL-2 melanoma, in the experiment on COLO 205 colon, in the experiment with LOX IMVI melanoma and with CCRF-CEM leukemia was greater than 100 µM each time. The TGI in the experiment with SNB-75 CNS, in the experiment on HCT-15 colon, in the experiment with MCF7 breast and with SK-MEL-5 melanoma was greater than 100 µM in each case.
For `C=C(C)CC1(O)C(=O)C(OCC)=C1OCC` (centres undefined), the TGI in the experiment on HT29 colon, with M14 melanoma, in the experiment with SK-MEL-2 melanoma, in the experiment with COLO 205 colon, with LOX IMVI melanoma and with CCRF-CEM leukemia was greater than 100 µM in each case. Further, the TGI in the experiment with SNB-75 CNS, in the experiment with HCT-15 colon, in the experiment on MCF7 breast and in the experiment with SK-MEL-5 melanoma was greater than 100 µM in each case.
For the compound `O=C(CCCNc1nc(-c2ccccc2)cs1)c1cccs1`, the TGI in the experiment with HT29 colon, with M14 melanoma, with SK-MEL-2 melanoma, in the experiment on COLO 205 colon, with LOX IMVI melanoma and in the experiment with SNB-75 CNS was greater than 100 µM throughout. Also, the TGI in the experiment with HCT-15 colon, in the experiment on HCC-2998 colon, in the experiment on MCF7 breast and in the experiment with SK-MEL-5 melanoma was greater than 100 µM in each case.
As for `Cc1cc(N=Nc2c(O)ccc3ccccc23)ccc1N=Nc1cccc([N+](C)(C)C)c1`, the TGI with HT29 colon was 25.1 µM; in the experiment on M14 melanoma it was 59.3 µM; in the experiment on SK-MEL-2 melanoma, 47.3 µM; with LOX IMVI melanoma, greater than 40.3 µM; with CCRF-CEM leukemia it was greater than 34.3 µM; in the experiment on SNB-75 CNS it was 26.3 µM. For the same compound, the TGI in the experiment on HCT-15 colon was greater than 84.4 µM; with HCC-2998 colon, greater than 100 µM; in the experiment on MCF7 breast, greater than 53.1 µM; with SK-MEL-5 melanoma, greater than 23.7 µM.
In the case of `CC1=CCC2C3(C)CCC2(C(C)C)C1C3` (centres undefined) (tested in a mixture with another compound), the TGI with HT29 colon is 32.4 µM; in the experiment on M14 melanoma, 45.7 µM; with SK-MEL-2 melanoma, 32.2 µM; in the experiment on COLO 205 colon it was 65 µM; with LOX IMVI melanoma it was 87.8 µM; in the experiment with CCRF-CEM leukemia it was 56.9 µM. The TGI in the experiment on SNB-75 CNS amounted to 77.5 µM; with HCT-15 colon, 33.3 µM; with HCC-2998 colon, 49.5 µM; in the experiment with MCF7 breast, 34.3 µM.
For `C/C=C1/CN2CCC3(O)c4ccccc4N4C=C(C(=O)OC)C1CC2C43O` (centres undefined), the TGI with HT29 colon, with M14 melanoma, in the experiment with COLO 205 colon, with LOX IMVI melanoma, with CCRF-CEM leukemia and with SNB-75 CNS was greater than 100 µM throughout. The TGI with HCT-15 colon, with HCC-2998 colon, with MCF7 breast and in the experiment with SK-MEL-5 melanoma was greater than 100 µM in each case.
Turning to `C/C1=C/C(C)CC(C)OC(=O)C(C)NC(=O)C(Cc2ccc(O)c(I)c2)N(C)C(=O)C(C)NC(=O)C(C)C1` (centres undefined), the TGI in the experiment on HT29 colon was greater than 40.7 µM; in the experiment with M14 melanoma, 48.8 µM; in the experiment with SK-MEL-2 melanoma, 5.67 µM; in the experiment on LOX IMVI melanoma, less than 0.01 µM; with SNB-75 CNS, less than 0.01 µM; with HCT-15 colon, 12.1 µM. For the same compound, the TGI is 5.2 µM in the experiment with HCC-2998 colon, greater than 100 µM in the experiment on MCF7 breast and 11.7 µM with SK-MEL-5 melanoma.
For the compound `CCOC(=O)c1c(C)cc(=O)n2c1[nH]c1ccccc12`, the TGI in the experiment on HT29 colon, with M14 melanoma, in the experiment on SK-MEL-2 melanoma, with COLO 205 colon, with LOX IMVI melanoma and in the experiment with CCRF-CEM leukemia was greater than 100 µM throughout. Further, the TGI in the experiment with HCT-15 colon, in the experiment on HCC-2998 colon, in the experiment with MCF7 breast and in the experiment with SK-MEL-5 melanoma was greater than 100 µM each time.
Turning to `O=C(N/N=C/c1ccc([N+](=O)[O-])o1)c1ccc(C(=O)N/N=C/c2ccc([N+](=O)[O-])o2)cc1`, the TGI with HT29 colon is greater than 100 µM; in the experiment with M14 melanoma it was greater than 100 µM; in the experiment with SK-MEL-2 melanoma, greater than 100 µM; in the experiment on COLO 205 colon, 94.7 µM; with LOX IMVI melanoma, 94.9 µM; in the experiment with CCRF-CEM leukemia, 42.4 µM. Also, the TGI in the experiment on SNB-75 CNS was greater than 100 µM; with HCT-15 colon it was greater than 100 µM; with MCF7 breast, 48.9 µM; in the experiment on SK-MEL-5 melanoma it was 55.6 µM.
On to `Cc1nc(C(N)=S)sc1C(/C=C/c1ccc(Cl)c(Cl)c1)=N/NC(C)(C)C`, for which the TGI in the experiment on HT29 colon, in the experiment on SK-MEL-2 melanoma, in the experiment with COLO 205 colon, in the experiment on LOX IMVI melanoma, in the experiment with CCRF-CEM leukemia and with SNB-75 CNS was greater than 100 µM throughout. Also, the TGI in the experiment on HCT-15 colon, in the experiment with HCC-2998 colon, in the experiment with MCF7 breast and in the experiment on SK-MEL-5 melanoma was greater than 100 µM in each case.
Take `CC1(C)CC23CC(C)(C)c4cccc(c42)OCc2ccc4ccc5ccc(nc5c4n2)COc2cccc1c23`: the TGI with HT29 colon, with M14 melanoma, in the experiment on SK-MEL-2 melanoma, with COLO 205 colon, in the experiment with LOX IMVI melanoma and in the experiment with SNB-75 CNS was greater than 50 µM in each case. Besides, the TGI in the experiment with HCT-15 colon, in the experiment on HCC-2998 colon, with MCF7 breast and with SK-MEL-5 melanoma was greater than 50 µM each time.
